From ChEMBL document CHEMBL1828599, “Synthesis, fluorescence and biodistribution of a bone-targeted near-infrared conjugate” (Eur J Med Chem, 2011)

Columns and labels:
[1] = tested on: Liver; assay: Biodistribution in liver of BALB/C mouse at 1.7 x 10^-6 mol/kg, iv as single dose measured up to 60 mins by fluorescence imaging technique; assay type: ADME, organism-based; conditions: in vivo, 1 h
[2] = tested on: Kidney; assay: Biodistribution in Kidney of BALB/C mouse at 1.7 x 10^-6 mol/kg, iv as single dose measured at 4 hrs by fluorescence imaging technique; assay type: ADME, organism-based; conditions: in vivo
[3] = tested on: Liver; assay: Biodistribution in liver of BALB/C mouse at 1.7 x 10^-6 mol/kg, iv as single dose measured at 4 hrs by fluorescence imaging technique; assay type: ADME, organism-based; conditions: in vivo
[4] = tested on: Mus musculus; assay: Biodistribution in bone joint of BALB/C mouse at 1.7 x 10^-6 mol/kg, iv as single dose measured at 24 hrs by fluorescence imaging technique; assay type: ADME, organism-based, Bone element; conditions: in vivo
[5] = tested on: Duodenum; assay: Biodistribution in duodenum of BALB/C mouse at 1.7 x 10^-6 mol/kg, iv as single dose measured at 4 hrs by fluorescence imaging technique; assay type: ADME, organism-based; conditions: in vivo
[6] = tested on: Mus musculus; assay: Biodistribution in soft tissue of BALB/C mouse at 1.7 x 10^-6 mol/kg, iv as single dose measured at 24 hrs by fluorescence imaging technique; assay type: ADME, organism-based; conditions: in vivo
[7] = tested on: Mus musculus; assay: Biodistribution in bone joint of BALB/C mouse at 1.7 x 10^-6 mol/kg, iv as single dose measured at 16 days by fluorescence imaging technique; assay type: ADME, organism-based, Bone element; conditions: in vivo, 384 h
[8] = tested on: Mus musculus; assay: Biodistribution in hip bone of BALB/C mouse at 1.7 x 10^-6 mol/kg, iv as single dose measured at 24 hrs by fluorescence imaging technique; assay type: ADME, organism-based, Bone of hip region; conditions: in vivo
[9] = tested on: Mus musculus; assay: Biodistribution in bone joint of BALB/C mouse at 1.7 x 10^-6 mol/kg, iv as single dose measured up to 8 days by fluorescence imaging technique; assay type: ADME, organism-based, Bone element; conditions: in vivo, 192 h
[10] = tested on: Mus musculus; assay: Biodistribution in leg bone of BALB/C mouse at 1.7 x 10^-6 mol/kg, iv as single dose measured at 24 hrs by fluorescence imaging technique; assay type: ADME, organism-based, Bone element; conditions: in vivo

Drug uptake [1] | Drug uptake [2] | Drug uptake [3] | Drug uptake [4] | Drug uptake [5] | SMILES | Drug uptake [6] | Drug uptake [7] | Drug uptake [8] | Drug uptake [9] | Drug uptake [10]
Active | Active | Active | Active | Active | CC1(C)C(/C=C/C=C/C=C/C=C2/N(CCCCS(=O)(=O)[O-])c3ccc4ccccc4c3C2(C)C)=[N+](CCCCS(=O)(=O)[O-])c2ccc3ccccc3c21.[Na+] [INDOCYANINE GREEN] | – | – | – | – | –
Active | Active | Active | Not Active | Active | CC1(C)C(/C=C/C=C/C=C/C=C2\N(CCCCC(=O)O)c3ccc4ccccc4c3C2(C)C)=[N+](CCCCC(=O)[O-])c2ccc3ccccc3c21 | – | – | – | – | –
– | – | – | – | – | CC1(C)C(/C=C/C=C/C=C/C=C2\N(CCCCC(=O)CCCC(O)(P(=O)([O-])O)P(=O)(O)O)c3ccc4ccccc4c3C2(C)C)=[N+](CCCCS(=O)(=O)[O-])c2ccc3ccccc3c21.[Na+] | Not Active | Not Active | Active | Active | Active
Active | Active | Active | Not Active | Active | CC1(C)C(/C=C/C=C/C=C/C=C2\N(CCCCC(=O)O)c3ccc4ccccc4c3C2(C)C)=[N+](CCCCS(=O)(=O)[O-])c2ccc3ccccc3c21 | – | – | – | – | –
